Experimental data published in patent publication US10597388B2, “Pyridazinone herbicides” (FMC CORPORATION, priority 2014, dated 2020).

Columns and labels:
Test in all cases: Test C greenhouse herbicide test, pre- and postemergence
Format in all cases: in vivo
[1] = tested on: wheat (winter wheat, Triticum aestivum)
In short: (§1)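 Greenhouse pots; pre-em on seeded loam:sand blend, post-em on 2–18 cm plants (1–4 leaf) in sphagnum peat/vermiculite medium. Formulation: non-phytotoxic solvent + surfactant. Read-out: visual % control (0–100) vs controls at 13–15 d.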

[2] = tested on: oilseed rape (Brassica napus)
In short: as §1

[3] = tested on: johnsongrass (Sorghum halepense)
In short: as §1

[4] = tested on: barnyardgrass (Echinochloa crus-galli)
In short: as §1

[5] = tested on: soybean (Glycine max)
In short: as §1

[6] = tested on: foxtail, giant (giant foxtail, Setaria faberii)
In short: as §1

[7] = tested on: waterhemp (common waterhemp, Amaranthus rudis)
In short: as §1

[8] = tested on: lambsquarters (Chenopodium album)
In short: as §1

[9] = tested on: galium (catchweed bedstraw, Galium aparine)
In short: as §1

[10] = tested on: nutsedge, yellow (yellow nutsedge, Cyperus esculentus)
In short: as §1

[11] = tested on: ragweed (common ragweed, Ambrosia elatior)
In short: as §1

[12] = tested on: crabgrass, large (large crabgrass, Digitaria sanguinalis)
In short: as §1

[13] = Postemergence, 31 g ai/ha, 0 to 100 scale (0 no effect, 100 complete control)
[14] = Postemergence, 125 g ai/ha, scale 0 to 100, 0 is no effect, 100 is complete control
[15] = Postemergence, 250 g ai/ha, scale 0 to 100, 0 no effect, 100 complete control, 13 to 15 d
[16] = Preemergence, 31 g ai/ha, scale 0 to 100, 0 is no effect, 100 is complete control
[17] = Preemergence, 62 g ai/ha, scale 0 to 100, 0 is no effect, 100 is complete control
[18] = Preemergence, 125 g ai/ha, scale 0 to 100, 0 is no effect, 100 is complete control
[19] = Preemergence, 250 g ai/ha, scale 0 to 100, 0 no effect, 100 complete control
[20] = postemergence, 62 g ai/ha, scale 0 to 100, 0 no effect, 100 complete control

Structure (SMILES): Cc1ccc2ccccc2c1-c1c(OC(=O)OC(C)C)c(C)nn(C)c1=O [Compound 72]
- Wheat plant response rating [1, 13]: 30
- Plant response rating, Wheat [1, 14]: 5
- Plant response rating, Wheat [1, 15]: 35
- Plant response rating, Wheat [1, 16]: 0
- Plant response rating, Wheat [1, 17]: 0
- Plant response rating, Wheat [1, 18]: 30
- Wheat plant response rating [1, 19]: 40
- Wheat plant response rating [1, 20]: 30
- Oilseed Rape plant response rating [2, 13]: 40
- Plant response rating, Oilseed Rape [2, 14]: 20
- Plant response rating, Oilseed Rape [2, 15]: 85
- Plant response rating, Oilseed Rape [2, 16]: 30
- Plant response rating, Oilseed Rape [2, 17]: 35
- Plant response rating, Oilseed Rape [2, 18]: 80
- Oilseed Rape plant response rating [2, 19]: 80
- Oilseed Rape plant response rating [2, 20]: 35
- Johnsongrass plant response rating [3, 13]: 5
- Plant response rating, Johnsongrass [3, 14]: 5
- Plant response rating, Johnsongrass [3, 15]: 45
- Plant response rating, Johnsongrass [3, 16]: 0
- Plant response rating, Johnsongrass [3, 17]: 25
- Plant response rating, Johnsongrass [3, 18]: 80
- Johnsongrass plant response rating [3, 19]: 85
- Johnsongrass plant response rating [3, 20]: 5
- Barnyardgrass plant response rating [4, 13]: 35
- Plant response rating, Barnyardgrass [4, 14]: 50
- Plant response rating, Barnyardgrass [4, 15]: 65
- Plant response rating, Barnyardgrass [4, 16]: 10
- Plant response rating, Barnyardgrass [4, 17]: 20
- Plant response rating, Barnyardgrass [4, 18]: 55
- Barnyardgrass plant response rating [4, 19]: 80
- Barnyardgrass plant response rating [4, 20]: 40
- Soybean plant response rating [5, 13]: 10
- Plant response rating, Soybean [5, 14]: 15
- Plant response rating, Soybean [5, 15]: 30
- Plant response rating, Soybean [5, 16]: 80
- Plant response rating, Soybean [5, 17]: 0
- Plant response rating, Soybean [5, 18]: 0
- Soybean plant response rating [5, 19]: 0
- Soybean plant response rating [5, 20]: 15
- Foxtail, Giant plant response rating [6, 13]: 50
- Plant response rating, Foxtail, Giant [6, 14]: 75
- Plant response rating, Foxtail, Giant [6, 15]: 85
- Plant response rating, Foxtail, Giant [6, 16]: 60
- Plant response rating, Foxtail, Giant [6, 17]: 70
- Plant response rating, Foxtail, Giant [6, 18]: 85
- Foxtail, Giant plant response rating [6, 19]: 85
- Foxtail, Giant plant response rating [6, 20]: 70
- Waterhemp plant response rating [7, 13]: 70
- Plant response rating, Waterhemp [7, 14]: 85
- Plant response rating, Waterhemp [7, 15]: 85
- Plant response rating, Waterhemp [7, 16]: 75
- Plant response rating, Waterhemp [7, 17]: 90
- Plant response rating, Waterhemp [7, 18]: 90
- Waterhemp plant response rating [7, 19]: 90
- Waterhemp plant response rating [7, 20]: 65
- Lambsquarters plant response rating [8, 13]: 85
- Plant response rating, Lambsquarters [8, 14]: 90
- Plant response rating, Lambsquarters [8, 15]: 95
- Plant response rating, Lambsquarters [8, 16]: 60
- Plant response rating, Lambsquarters [8, 17]: 65
- Plant response rating, Lambsquarters [8, 18]: 85
- Lambsquarters plant response rating [8, 19]: 90
- Lambsquarters plant response rating [8, 20]: 85
- Galium plant response rating [9, 13]: 80
- Plant response rating, Galium [9, 14]: 95
- Plant response rating, Galium [9, 15]: 95
- Plant response rating, Galium [9, 16]: 90
- Plant response rating, Galium [9, 17]: 90
- Plant response rating, Galium [9, 18]: 95
- Galium plant response rating [9, 19]: 95
- Galium plant response rating [9, 20]: 95
- Nutsedge, Yellow plant response rating [10, 13]: 30
- Plant response rating, Nutsedge, Yellow [10, 14]: 70
- Plant response rating, Nutsedge, Yellow [10, 15]: 85
- Plant response rating, Nutsedge, Yellow [10, 16]: 10
- Plant response rating, Nutsedge, Yellow [10, 17]: 10
- Plant response rating, Nutsedge, Yellow [10, 18]: 60
- Nutsedge, Yellow plant response rating [10, 19]: 70
- Nutsedge, Yellow plant response rating [10, 20]: 60
- Ragweed plant response rating [11, 13]: 80
- Plant response rating, Ragweed [11, 14]: 95
- Plant response rating, Ragweed [11, 15]: 90
- Plant response rating, Ragweed [11, 16]: 85
- Plant response rating, Ragweed [11, 17]: 90
- Plant response rating, Ragweed [11, 18]: 100
- Ragweed plant response rating [11, 19]: 95
- Ragweed plant response rating [11, 20]: 90
- Crabgrass, Large plant response rating [12, 13]: 10
- Plant response rating, Crabgrass, Large [12, 14]: 35
- Plant response rating, Crabgrass, Large [12, 15]: 60
- Plant response rating, Crabgrass, Large [12, 16]: 60
- Plant response rating, Crabgrass, Large [12, 17]: 80
- Plant response rating, Crabgrass, Large [12, 18]: 65
- Crabgrass, Large plant response rating [12, 19]: 85
- Crabgrass, Large plant response rating [12, 20]: 25
